Measurements published in patent US20230123334A1, “AMINO LIPID COMPOUND, PREPARATION METHOD THEREFOR, AND APPLICATION THEREOF” (SHENZHEN SHENXIN BIOTECHNOLOGY CO., LTD., priority 2020, published 2023).

Experiments:
HEK293 cells [1] = assay: Preliminary screening as DNA vectors, GFP transfection of HEK293 cells; assay type: cell-based; conditions: HEK293 cells; lipid/DOPE liposome with 75 ng plasmid DNA (psin-EGFP-IRES-Puro); number of cells expressing GFP divided by total number of nuclei (Hoechst)
How it was run: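 First, amino lipid and DOPE were vortexed in sodium acetate buffer (pH 5.6) to form liposomes. Next, these were held with 75 ng EGFP plasmid at room temperature for 30 min. Finally, HEK293 cells were added, cultured at 37° C., Hoechst-stained, and GFP+/total nuclei scored by imaging.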

HEK293 cells [2] = assay: Preliminary screening as mRNA vectors, EGFP mRNA transfection of HEK293 cells; assay type: cell-based; conditions: HEK293 cells, 96-well plates, EGFP mRNA 50 ng per well; percentage of GFP fluorescent cells relative to total number of cells (Hoechst)
How it was run: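 Screening format: EGFP mRNA transfection (50 ng/well) into HEK293 in 10% FBS-supplemented DMEM. Percent green fluorescent cells, normalised to Hoechst nuclear count, gave the value; Lipofectamine2000 was the reference transfectant.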

SMILES | Absolute DNA transfection efficiency in HEK293 cells (HEK293 cells [1]) [%] | Absolute mRNA transfection efficiency in HEK293 cells (HEK293 cells [2]) [%]
CCCCCCCCCCCCN(CCCCCCCCCCCC)c1nc(NCCCCCCC)nc(NCCN(C)C)n1 [N7^2N12D1] | 3.6 | 3.5
CCCCCCCCCCCCN(CCCCCCCCCCCC)c1nc(NCCCCCCC)nc(NCCN2CCOCC2)n1 [N7^2N12D2] | 1.7 | 0.9
CCCCCCCCCCCCN(CCCCCCCCCCCC)c1nc(NCCCCCCC)nc(NCCN2CCCC2)n1 [N7^2N12D3] | 2.5 | 6.8
CCCCCCCCCCCCN(CCCCCCCCCCCC)c1nc(NCCCCCCC)nc(NCCN2CCCCC2)n1 [N7^2N12D4] | 1.2 | 3.7
CCCCCCCCCCCCN(CCCCCCCCCCCC)c1nc(NCCCCCCC)nc(NCCN2CCN(C)CC2)n1 [N7^2N12D5] | 0.9 | 2.4
CCCCCCCCCCCCN(CCCCCCCCCCCC)c1nc(NCCCCCCC)nc(NCCCN(C)C)n1 [N7^2N12D6] | 0.7 | 4.8
CCCCCCCCCCCCN(CCCCCCCCCCCC)c1nc(NCCCCCCC)nc(NCCN(CC)CC)n1 [N7^2N12D7] | 0.6 | 1.9
CCCCCCCCCCCCN(CCCCCCCCCCCC)c1nc(NCCCCCCC)nc(NCCCN2CCOCC2)n1 [N7^2N12D8] | 1.6 | 2.7
CCCCCCCCCCCCN(CCCCCCCCCCCC)c1nc(NCCCCCCC)nc(NCCCN2CCN(C)CC2)n1 [N7^2N12D9] | 1.9 | 5.4
CCCCCCCCCCCCN(CCCCCCCCCCCC)c1nc(NCCCCCCC)nc(NCC2CCN(C)CC2)n1 [N7^2N12D10] | 1.4 | 2.0
CCCCCCCCCCCCN(CCCCCCCCCCCC)c1nc(NCCCCCCCC)nc(NCCN(C)C)n1 [N8^2N12D1] | 0.0 | 0.2
CCCCCCCCCCCCN(CCCCCCCCCCCC)c1nc(NCCCCCCCC)nc(NCCN2CCOCC2)n1 [N8^2N12D2] | 0.1 | 1.4
CCCCCCCCCCCCN(CCCCCCCCCCCC)c1nc(NCCCCCCCC)nc(NCCN2CCCC2)n1 [N8^2N12D3] | 0.1 | 0.9
CCCCCCCCCCCCN(CCCCCCCCCCCC)c1nc(NCCCCCCCC)nc(NCCN2CCCCC2)n1 [N8^2N12D4] | 0.0 | 0.2
CCCCCCCCCCCCN(CCCCCCCCCCCC)c1nc(NCCCCCCCC)nc(NCCN2CCN(C)CC2)n1 [N8^2N12D5] | 0.0 | 0.4
CCCCCCCCCCCCN(CCCCCCCCCCCC)c1nc(NCCCCCCCC)nc(NCCCN(C)C)n1 [N8^2N12D6] | 0.0 | 0.9
CCCCCCCCCCCCN(CCCCCCCCCCCC)c1nc(NCCCCCCCC)nc(NCCN(CC)CC)n1 [N8^2N12D7] | 0.0 | 0.0
CCCCCCCCCCCCN(CCCCCCCCCCCC)c1nc(NCCCCCCCC)nc(NCCCN2CCOCC2)n1 [N8^2N12D8] | 0.2 | 2.0
CCCCCCCCCCCCN(CCCCCCCCCCCC)c1nc(NCCCCCCCC)nc(NCCCN2CCN(C)CC2)n1 [N8^2N12D9] | 0.2 | 0.4
CCCCCCCCCCCCN(CCCCCCCCCCCC)c1nc(NCCCCCCCC)nc(NCC2CCN(C)CC2)n1 [N8^2N12D10] | 0.0 | 2.7
CCCCCCCCCCCCN(CCCCCCCCCCCC)c1nc(NCCCCCCCCC)nc(NCCN(C)C)n1 [N9^2N12D1] | 0.0 | 4.7

SMILES | Absolute DNA transfection efficiency in HEK293 cells (HEK293 cells [1]) [%] | Absolute mRNA transfection efficiency in HEK293 cells (HEK293 cells [2]) [%]
CCCCCCCCCCCCN(CCCCCCCCCCCC)c1nc(NCCCCCCCCC)nc(NCCN2CCOCC2)n1 [N9^2N12D2] | 0.0 | 1.3
CCCCCCCCCCCCN(CCCCCCCCCCCC)c1nc(NCCCCCCCCC)nc(NCCN2CCCC2)n1 [N9^2N12D3] | 0.4 | 2.3
CCCCCCCCCCCCN(CCCCCCCCCCCC)c1nc(NCCCCCCCCC)nc(NCCN2CCCCC2)n1 [N9^2N12D4] | 0.0 | 0.4
CCCCCCCCCCCCN(CCCCCCCCCCCC)c1nc(NCCCCCCCCC)nc(NCCN2CCN(C)CC2)n1 [N9^2N12D5] | 0.0 | 1.8
CCCCCCCCCCCCN(CCCCCCCCCCCC)c1nc(NCCCCCCCCC)nc(NCCCN(C)C)n1 [N9^2N12D6] | 0.3 | 0.8
CCCCCCCCCCCCN(CCCCCCCCCCCC)c1nc(NCCCCCCCCC)nc(NCCN(CC)CC)n1 [N9^2N12D7] | 0.0 | 0.2
CCCCCCCCCCCCN(CCCCCCCCCCCC)c1nc(NCCCCCCCCC)nc(NCCCN2CCOCC2)n1 [N9^2N12D8] | 0.0 | 0.3
CCCCCCCCCCCCN(CCCCCCCCCCCC)c1nc(NCCCCCCCCC)nc(NCCCN2CCN(C)CC2)n1 [N9^2N12D9] | 0.0 | 3.9
CCCCCCCCCCCCN(CCCCCCCCCCCC)c1nc(NCCCCCCCCC)nc(NCC2CCN(C)CC2)n1 [N9^2N12D10] | 0.0 | 2.9
CCCCCCCCCCCCNc1nc(NCCN(C)C)nc(N(CCCCCCCCCCCC)CCCCCCCCCCCC)n1 [N12^2N12D1] | 0.5 | 2.8
CCCCCCCCCCCCNc1nc(NCCN2CCOCC2)nc(N(CCCCCCCCCCCC)CCCCCCCCCCCC)n1 [N12^2N12D2] | 0.4 | 0.3
CCCCCCCCCCCCNc1nc(NCCN2CCCC2)nc(N(CCCCCCCCCCCC)CCCCCCCCCCCC)n1 [N12^2N12D3] | 3.2 | 5.8
CCCCCCCCCCCCNc1nc(NCCN2CCCCC2)nc(N(CCCCCCCCCCCC)CCCCCCCCCCCC)n1 [N12^2N12D4] | 2.5 | 2.6
CCCCCCCCCCCCNc1nc(NCCN2CCN(C)CC2)nc(N(CCCCCCCCCCCC)CCCCCCCCCCCC)n1 [N12^2N12D5] | 0.5 | 2.2
CCCCCCCCCCCCNc1nc(NCCCN(C)C)nc(N(CCCCCCCCCCCC)CCCCCCCCCCCC)n1 [N12^2N12D6] | 3.6 | 1.2
CCCCCCCCCCCCNc1nc(NCCN(CC)CC)nc(N(CCCCCCCCCCCC)CCCCCCCCCCCC)n1 [N12^2N12D7] | 2.2 | 2.0
CCCCCCCCCCCCNc1nc(NCCCN2CCOCC2)nc(N(CCCCCCCCCCCC)CCCCCCCCCCCC)n1 [N12^2N12D8] | 0.6 | 3.2
CCCCCCCCCCCCNc1nc(NCCCN2CCN(C)CC2)nc(N(CCCCCCCCCCCC)CCCCCCCCCCCC)n1 [N12^2N12D9] | 3.0 | 0.7
CCCCCCCCCCCCNc1nc(NCC2CCN(C)CC2)nc(N(CCCCCCCCCCCC)CCCCCCCCCCCC)n1 [N12^2N12D10] | 0.7 | 0.9
CCCCCCCCCCCCCNc1nc(NCCN(C)C)nc(N(CCCCCCCCCCCC)CCCCCCCCCCCC)n1 [N13^2N12D1] | 1.2 | 4.7
